In patent US11229608B2 (priority 2019, dated 2022):
“Also recorded” adds a separate entry of the source.

Tested on: ornamental vinca (vincire) plants
Assay: Phytotoxicity assessment on vinca plants after foliar application
Type: in vivo
Parameters: key to Phytotoxicity rating: −: non-phytotoxic; +: minimal phytotoxic; ++: moderate phytotoxic; +++: heavy phytotoxic
Details: 72 hours; for Phytotoxicity rating: visual
Method: Ornamental vinca plants are susceptible to metal phytotoxicity such as Cu and used as industry standard. 3 plants were foliar sprayed with each treatments and controls at three different rates, 300 ppm, 600 ppm and 1,000 ppm. Test solutions were foliar applied using hand-operated pump mist sprayer till run off. Afterwards, plants were placed in plant growth chamber (Panasonic MLR-325H-PA) programmed to simulate summer conditions (maximum temperature set at 31° C.). Visual observations were conducted after 72 hours application to assess the overall plant health and phytotoxicity rating.
The assessment was done visually based on size and number of burns on plants after 72 hours of foliar application. Vinca (vincire) plant phytotoxicity rating on a scale of “−” non-phytotoxic, “+” minimal phytotoxic, “++” moderate phytotoxic, and (+++) heavy phytotoxic.

| SMILES | phytotoxicity (in words) (1,000 μg/ml (ppm)) | Phytotoxicity rating (metal concentration 1000 μg/ml) | phytotoxicity (in words) (300 μg/ml) | phytotoxicity (in words) (600 μg/ml) | Phytotoxicity rating (metal concentration 300 μg/ml) | Phytotoxicity rating (metal concentration 600 μg/ml) |
| --- | --- | --- | --- | --- | --- | --- |
| O=[N+]([O-])[O-].O=[N+]([O-])[O-].[Cu+2] [Copper nitrate] | severely phytotoxic | +++ |  |  |  |  |
| O=[N+]([O-])[O-].O=[N+]([O-])[O-].[Zn+2] [Zinc nitrate] | moderately phytotoxic | ++ | non-phytotoxic | moderately phytotoxic; also recorded: minimally phytotoxic | − | + |
